Results reported in patent US10479789B2, “Pyrido[1,2-A]pyrimidone analog, crystal form thereof, intermediate thereof and preparation method therefor” (Chia Tai Tianqing Pharmaceutical Group Co., Ltd., priority 2015, dated 2019).

Legend:
[1] = Stability of crystalline Form IX of Compound 1 in different solvents (XRPD after stirring); assay type: physicochemical; details: stirred at 40° C.; for Results (crystalline state by XRPD): 2 days
Description: Several samples of crystalline Form IX of Compound 1 in a suitable amount were taken, respectively added to 0.3-0.4 mL of a single solvent or a mixed solvent as shown in the following table, and stirred at 40° C. After stirring for 2 days, the samples were centrifuged. Solid in the samples was collected and its crystalline state was detected by XRPD.

[2] = Solid state stability of crystalline Form IX under high temperature, high humidity and strong light; assay type: physicochemical
Description: About 10 mg of crystalline Form IX of Compound 1 was weighed and placed on a bottom of a glass sample bottle to form a thin layer. For the samples placed under the conditions of 60° C. and room temperature/92.5% RH, the top of the bottles was covered with aluminum foil, and several holes were made in aluminum foil, which is ensure that the samples were fully exposed to the air in the environment; for the samples placed under strong light (5 Klx), the bottles were sealed with a screw cap. Another sample of 15 mg of crystalline Form IX was taken and placed according to the method as described above for detecting the crystalline form of the sample. The samples placed under different conditions were sampled and detected on day 5 and day 10, and the detection results were compared with the initial detection results on day 0.

[3] = High temperature 60° C. (opened), day 5
[4] = High temperature 60° C. (opened), day 5 and day 10
[5] = High temperature 60° C. (opened), day 10
[6] = Light 5KIx (closed), day 5 and day 10
[7] = Room temperature/92.5% RH (opened), day 5
[8] = Room temperature/92.5% RH (opened), day 5 and day 10
[9] = Room temperature/92.5% RH (opened), day 10

**Q.** Which “Appearance (2 days)” value ([1]; acetone) does the source give for `COc1ncc(-c2ccc3ncc(OCCN(C)C)c(=O)n3c2)cc1NS(=O)(=O)c1ccc(F)cc1Cl` [crystalline Form IX of Compound 1] here?
**A.** The value was “suspension”.

**Q.** And the “Results (crystalline state by XRPD)” value ([1]; acetone)?
**A.** Its value is “crystalline”.

**Q.** What about the “Appearance (2 days)” value ([1]; acetone-water (1:2)) of the same molecule?
**A.** Its value is “suspension”.

**Q.** And the “Results (crystalline state by XRPD)” value ([1]; acetone-water (1:2))?
**A.** Its value is “crystalline”.

**Q.** What about the “Appearance (2 days)” value ([1]; acetonitrile) of the same molecule?
**A.** The value was “suspension”.

**Q.** And the “Results (crystalline state by XRPD)” value ([1]; acetonitrile)?
**A.** Its value is “crystalline”.

**Q.** What about the “Appearance (2 days)” value ([1]; ethanol) of the same molecule?
**A.** The value was “suspension”.

**Q.** And the “Results (crystalline state by XRPD)” value ([1]; ethanol)?
**A.** The value was “crystalline”.

**Q.** What about the “Appearance (2 days)” value ([1]; ethanol-water (3:1)) of the same molecule?
**A.** The value was “suspension”.

**Q.** What about the “Results (crystalline state by XRPD)” value ([1]; ethanol-water (3:1)) of the same molecule?
**A.** The value was “crystalline”.

**Q.** What about the “Appearance (2 days)” value ([1]; ethyl acetate) of the same molecule?
**A.** The value was “suspension”.

**Q.** And the “Results (crystalline state by XRPD)” value ([1]; ethyl acetate)?
**A.** The value was “crystalline”.

**Q.** And the “Appearance (2 days)” value ([1]; isopropanol)?
**A.** Its value is “suspension”.

**Q.** And the “Results (crystalline state by XRPD)” value ([1]; isopropanol)?
**A.** Its value is “crystalline”.

**Q.** What about the “Appearance (2 days)” value ([1]; isopropanol-water (1:1)) of the same molecule?
**A.** Its value is “suspension”.

**Q.** What about the “Results (crystalline state by XRPD)” value ([1]; isopropanol-water (1:1)) of the same molecule?
**A.** The value was “crystalline”.

**Q.** What about the “Appearance (2 days)” value ([1]; methanol) of the same molecule?
**A.** Its value is “suspension”.

**Q.** What about the “Results (crystalline state by XRPD)” value ([1]; methanol) of the same molecule?
**A.** Its value is “crystalline”.

**Q.** What about the “Appearance (2 days)” value ([1]; methanol-water (3:1)) of the same molecule?
**A.** Its value is “suspension”.

**Q.** And the “Results (crystalline state by XRPD)” value ([1]; methanol-water (3:1))?
**A.** The value was “crystalline”.

**Q.** What about the “Appearance (2 days)” value ([1]; tetrahydrofuran) of the same molecule?
**A.** The value was “suspension”.

**Q.** And the “Results (crystalline state by XRPD)” value ([1]; tetrahydrofuran)?
**A.** The value was “crystalline”.

**Q.** And the “Content (%)” value [2, 3]?
**A.** The value was 100.64%.

**Q.** And the “Total impurities (%)” value [2, 3]?
**A.** The value was 0.32%.

**Q.** What about the Appearance [2, 4] of the same molecule?
**A.** Its Appearance is “White”.

**Q.** And the “Crystalline Form” value [2, 4]?
**A.** The value was “crystalline”.

**Q.** And the “Content (%)” value [2, 5]?
**A.** The value was 100.55%.

**Q.** And the “Total impurities (%)” value [2, 5]?
**A.** The value was 0.33%.

**Q.** What about the “Content (%)” value ([2]; Light 5KIx (closed), day 5) of the same molecule?
**A.** The value was 100.43%.

**Q.** And the “Total impurities (%)” value ([2]; Light 5KIx (closed), day 5)?
**A.** Its value is 0.31%.

**Q.** What about the Appearance [2, 6] of the same molecule?
**A.** The Appearance was “White”.

**Q.** What about the “Crystalline Form” value [2, 6] of the same molecule?
**A.** The value was “crystalline”.

**Q.** And the “Content (%)” value ([2]; Light 5KIx (closed), day 10)?
**A.** The value was 101.10%.

**Q.** And the “Total impurities (%)” value ([2]; Light 5KIx (closed), day 10)?
**A.** The value was 0.32%.

**Q.** What about the “Content (%)” value [2, 7] of the same molecule?
**A.** The value was 101.05%.

**Q.** And the “Total impurities (%)” value [2, 7]?
**A.** The value was 0.32%.

**Q.** What about the Appearance [2, 8] of the same molecule?
**A.** Its Appearance is “White”.

**Q.** What about the “Crystalline Form” value [2, 8] of the same molecule?
**A.** Its value is “crystalline”.

**Q.** And the “Content (%)” value [2, 9]?
**A.** The value was 101.16%.

**Q.** And the “Total impurities (%)” value [2, 9]?
**A.** The value was 0.32%.

**Q.** And the Appearance ([2]; day 0 (initial))?
**A.** Its Appearance is “White”.

**Q.** And the “Content (%)” value ([2]; day 0 (initial))?
**A.** Its value is 101.02%.

**Q.** And the “Crystalline Form” value ([2]; day 0 (initial))?
**A.** The value was “crystalline”.

**Q.** And the “Total impurities (%)” value ([2]; day 0 (initial))?
**A.** The value was 0.32%.
